Results reported in US9913854B2, “Methods and compositions for reducing the proliferation of gram positive bacteria” (priority 2012, dated 2018).
Values after ≈ are worked out from the molar mass of the structure shown. “Also recorded” adds a separate entry of the source. Where two headings read alike, the source gives them in different places.

Experiments:
S. aureus Newman [1] = assay: MIC, CLSI broth microplate assay; assay type: cell-based, Staphylococcus aureus
Procedure: (§1) In vitro susceptibility tests (minimum inhibitory concentration [MIC]) were conducted using the Clinical and Laboratory Standards Institute (CLSI) broth microplate assay guidelines (Clinical and Laboratory Standards Institute, Performance Standards for Antimicrobial Susceptibility Testing; 16th Informational Supplement, CLSI M100-S16, Wayne, Pa., 2006). Because of temperature sensitivity, to determine susceptibility of RN4220 ΔltaS, bacteria were cultured at 30° C. for 20 h.

S. aureus NewmanΔtarO = assay: MIC, CLSI broth microplate assay; assay type: cell-based; details: Staphylococcus aureus
Procedure: as §1

S. aureus RN4220 = assay: MIC, CLSI broth microplate assay; assay type: cell-based, Staphylococcus aureus
Procedure: as §1

[2] = system: S. aureus RN4220ΔltaS-ltaS; assay: MIC, CLSI broth microplate assay; assay type: cell-based, Staphylococcus aureus
Procedure: as §1

S. aureus RN4220ΔltaS = assay: MIC, CLSI broth microplate assay; assay type: cell-based, Staphylococcus aureus
Procedure: as §1

S. aureus RN4220ΔtarK = assay: MIC, CLSI broth microplate assay; assay type: cell-based, Staphylococcus aureus
Procedure: as §1

S. aureus RN4220ΔtarA = assay: MIC, CLSI broth microplate assay; assay type: cell-based; details: Staphylococcus aureus
Procedure: as §1

S. aureus RN4220ΔtarO = assay: MIC, CLSI broth microplate assay; assay type: cell-based; details: Staphylococcus aureus
Procedure: as §1

S. aureus RN6390 = assay: MIC, CLSI broth microplate assay; assay type: cell-based; details: Staphylococcus aureus; strain RN6390
Procedure: as §1

S. aureus RN6390ΔtarO = assay: MIC, CLSI broth microplate assay; assay type: cell-based; details: Staphylococcus aureus
Procedure: as §1

[3] = system: S. aureus tarO and tarA mutants lacking WTA; assay: MIC, for mutants lacking WTA; assay type: cell-based, Staphylococcus aureus
Procedure: as §1
Minimum inhibitory concentrations (MICs) for Congo Red were determined by microdilution assay. Consistent with the results of agar plate tests, the parental strain RN4220, and isogenic tarK, and ltaS mutants, as well as an ltaS strain complemented on a multicopy plasmid, were all resistant to Congo Red at concentrations>1024 mg/L (Table 2).

S. aureus tarO mutant = assay: Dye sensitivity test on agar plates; assay type: cell-based, Staphylococcus aureus; details: for growth on agar with Congo Red: tarO mutant, 0.08% w/v Congo Red; for selective suppression of growth of tarO mutant but not parental strain on dye agar: Newman ΔtarO vs Newman
Procedure: (§2) Congo Red sensitivity tests were conducted as previously described (Hubscher et al., FEMS Microbiol. Lett. 295:251-260, 2009), with minor modification. Briefly, 10-fold dilutions, starting at 10^6 colony forming units (CFU) in 5 μL, were spotted on brain heart infusion (BHI) agar or Luria-Bertani (LB) agar, supplemented with 0.08% (w/v) Congo Red where appropriate. The Congo Red agar plates were incubated at 37° C. or 30° C. for 24 hours. As a precaution to prevent possible inactivation of Congo Red by light, the plates were incubated in the dark. Sensitivity to Congo Red was determined by comparing colony density between parental and mutant strains on control and Congo Red plates. Sudan Red 7B (0.08% w/v), Calcofluor White (0.01% w/v), Direct Red (0.08% w/v), Mordant Black (0.08% w/v), or Acid Red (0.08% w/v) in BHI agar were tested similarly.

S. aureus tarA mutant = assay: Congo Red sensitivity test on agar plates; assay type: cell-based, Staphylococcus aureus; details: 0.08% w/v Congo Red
Procedure: as §2

S. aureus tarK mutant = assay: Congo Red sensitivity test on agar plates; assay type: cell-based, Staphylococcus aureus; details: 0.08% w/v Congo Red
Procedure: as §2

S. aureus ltaS mutant = assay: Congo Red sensitivity test on agar plates; assay type: cell-based, Staphylococcus aureus; details: LB agar, 0.08% w/v Congo Red, 30° C. and 37° C.
Procedure: as §2
To determine whether loss of lipoteichoic acid (LTA) could also generate the Congo Red susceptible phenotype, an ltaS mutant of S. aureus was tested (Oku et al., J. Bacteriol. 191:141-151, 2009). The ltaS mutant is sensitive to heat and low osmolarity (Grundling et al., Proc. Natl. Acad. Sci. U.S.A. 104:8478-8483, 2007; Oku et al., J. Bacteriol. 191:141-151, 2009). Therefore, Congo Red was added at 0.08% w/v to Luria broth (LB) agar (having a higher NaCl concentration than BHI), and the strain was tested for Congo Red sensitivity at 30° C. […]

S. aureus Newman ΔtarO = assay: Kinetics of Congo Red inhibition, growth in TSB; assay type: cell-based, Staphylococcus aureus; details: Newman tarO, 10 mg/L Congo Red
Procedure: FIG. 5 is a graph showing the growth of S. aureus strain Newman (closed circles) and Newman ΔtarO (open circles) in tryptic soy broth (TSB) before and following the addition of 10 mg/L Congo Red (black arrow).
To assess kinetics of Congo Red inhibition, growth of S. aureus strain Newman and its tarO mutant were assessed in TSB containing 10 mg/L Congo Red. Newman tarO began to die 3 hours after addition of Congo Red (FIG. 5). To probe the mechanism of killing, Congo Red-inhibited cells were examined by transmission electron microscopy (TEM) (FIGS. 6A-6D). […] Since Congo red contains two sulfonic-acid groups, the MICs for sulfanilamide which is developed from prontocil were determined in the Newman and tarO mutant strains.

S. aureus Newman [4] = assay: Transmission electron microscopy after Congo Red; assay type: cell-based, Staphylococcus aureus; details: Newman parental; 6 hours in TSB with 10 mg/L Congo Red
Procedure: Newman or Newman ΔtarO were inoculated to approximately 10^9 CFU/mL in TSB containing 10 mg/L Congo Red, and cultured at 37° C. for 6 h. Cells were collected at 0 or 6 h, fixed in Karnovsky's fixative (2% paraformaldehyde and 2.5% glutaraldehyde in cacodylate buffer [pH 7.4]), and processed for TEM using standard procedures described in Suzuki et al. (Invest. Ophthalmol. Vis. Sci. 52:3187-3192, 2011). For TEM, 60- to […] sections were obtained, viewed, and photographed with a transmission electron microscope (model 410; Philips Electronics NV, Eindhoven, The Netherlands).

S. aureus strain Newman = assay: Checkerboard assay, Congo Red and tunicamycin; assay type: cell-based, Staphylococcus aureus
Procedure: A standard checkerboard assay, using Congo Red and tunicamycin, was performed as described in Lorian (Antibiotics in Laboratory Medicine, 4th Edition, Baltimore, Md., Williams & Wilkins Co., 1996). To assess the kinetics of inhibition, cultures of strain Newman were started in TSB containing either Congo Red or tunicamycin. Briefly, an overnight culture of S. aureus strain Newman was diluted to approximately 10^5 CFU/mL in 10 mL of TSB containing 10 mg/L Congo Red or 1 mg/L tunicamycin, and cultured at 37° C. statically. Following 2 h incubation, tunicamycin (1 mg/L final concentration) was added to the Congo Red culture, or Congo Red (10 mg/L final concentration) was added to the tunicamycin culture. Following 6 h of additional incubation bacteria were enumerated by plating serial ten-fold dilutions.

C. elegans = assay: Toxicity against uninfected C. elegans; assay type: in vivo, Caenorhabditis elegans; details: single agent; tunicamycin 6.25-100.0 mg/L, Congo Red 3.1-50.0 mg/L; uninfected worms
Procedure: (§3) C. elegans glp-4(bn2); sek-1(km4) was used for all experiments and infected essentially as described in Breger et al. (PLoS Pathog. 3:e18, 2007), with minor modifications. This mutant line was selected for liquid assay experiments because they are unable to produce progeny at 25° C. (Miyata et al., Genetics 178:903-918, 2008), and the deleted sek-1 gene encodes a conserved mitogen-activated protein (MAP) kinase involved in innate immunity (Kim et al., Science 297:623-626, 2002), expediting the rate of killing. Worms were cultured and maintained on nematode growth medium (NGM) agar containing lawns of E. coli HB101 (Breger et al., PLoS Pathog. 3:e18, 2007).
(§4) To assess the sensitivity of C. elegans to infection by S. aureus RN6390 or an isogenic ΔtarO strain, the bacteria were cultured in TSB at 37° C. Overnight cultures were plated onto 10 cm TSB agar plates for 18 hours at 37° C., and cooled at room temperature for 30 minutes. Washed young adult worms were infected on lawns of S. aureus strains for 3 hours at 25° C. After washing three times with M9, worms were transferred into the wells of a six well microtiter plates (40 worms per well). Each well contained 2 mL of assay medium (20% BHI: 80% M9 v/v) containing various concentrations of Congo Red, tunicamycin, or a combination of Congo Red and tunicamycin. […]

[5] = system: C. elegans infected with S. aureus RN6390; assay: C. elegans infection model, S. aureus RN6390; assay type: in vivo, Caenorhabditis elegans; details: Congo Red alone 3.1-25.0 mg/L
Procedure: as §3, §4

[6] = system: C. elegans infected with S. aureus RN6390 ΔtarO; assay: C. elegans infection model, S. aureus RN6390 ΔtarO; assay type: in vivo, Caenorhabditis elegans; details: Congo Red alone 3.1-25.0 mg/L
Procedure: as §3, §4

[7] = BHI agar, dye 0.08% w/v, 37° C., 24 hours

Nc1ccc(S(N)(=O)=O)cc1 [sulfanilamide]
MIC (S. aureus Newman [1]; Staphylococcus aureus, strain Newman, single agent, read-out: MIC): > 128 µg/mL | MIC (S. aureus NewmanΔtarO): > 128 µg/mL

Nc1c(/N=N/c2ccc(-c3ccc(/N=N/c4cc(S(=O)(=O)O)c5ccccc5c4N)cc3)cc2)cc(S(=O)(=O)O)c2ccccc12 [Congo Red]
MIC (S. aureus Newman [1]; Staphylococcus aureus, NEWMAN): > 1020 µg/mL | MIC (S. aureus Newman [1]; strain Newman, single agent): >1024 µg/mL | MIC (S. aureus RN4220; Staphylococcus aureus, RN4220): > 1020 µg/mL | MIC (S. aureus RN4220; strain RN4220): >1024 µg/mL | MIC ([2]; Staphylococcus aureus): > 1020 µg/mL | MIC ([2]; strain RN4220ΔltaS-ltaS (ltaS complemented on multicopy plasmid)): >1024 µg/mL | MIC (S. aureus RN4220ΔltaS; Staphylococcus aureus, 20 h): > 1020 µg/mL | MIC (S. aureus RN4220ΔltaS; strain RN4220ΔltaS, cultured at 30° C. for 20 h): >1024 µg/mL | MIC (S. aureus RN4220ΔtarK; Staphylococcus aureus): > 1020 µg/mL | MIC (S. aureus RN4220ΔtarK; strain RN4220ΔtarK): >1024 µg/mL | MIC (S. aureus NewmanΔtarO): 1 µg/mL (≈ 1.53 µM) | MIC (S. aureus RN4220ΔtarA): 0.5 µg/mL (≈ 0.766 µM) | MIC (S. aureus RN4220ΔtarO): 2 µg/mL (≈ 3.06 µM) | MIC (S. aureus RN6390): > 1020 µg/mL | MIC (S. aureus RN6390ΔtarO): 4 µg/mL (≈ 6.13 µM) | MIC ([3]; Staphylococcus aureus): 0.5 to 4 µg/mL (≈ 0.766 to 6.13 µM) | MIC fold lower than resistant strains ([3]; tarO and tarA mutants vs parental, tarK, ltaS strains): 250-2000 fold | growth on agar with Congo Red (S. aureus tarO mutant; BHI agar, 37° C., 24 hours): highly susceptible; also recorded: neither tarA nor tarO strains grew | growth on agar with Congo Red (S. aureus tarO mutant; LB agar, 30° C. and 37° C.): inhibited | growth on agar with Congo Red (S. aureus tarA mutant): neither tarA nor tarO strains grew | growth on agar with Congo Red (S. aureus tarK mutant): not affected | growth on agar with Congo Red (S. aureus ltaS mutant): no effect | time after addition of Congo Red at which bacteria began to die (S. aureus Newman ΔtarO): 3 h | cell morphology by TEM (S. aureus Newman [4]): not detectably affected | Congo Red MIC in presence of tunicamycin (S. aureus strain Newman; tunicamycin as low as 5 mg/L): 1 µg/mL | synergy with tunicamycin (S. aureus strain Newman; two-dimensional checkerboard, 20 hours, 37° C.): strong synergy | toxicity for C. elegans (C. elegans): little toxicity | rescue of infected nematodes (survival) [5]: little effect; also recorded: inability | rescue of infected nematodes (survival) [6]: rescue

Direct Red
selective suppression of growth of tarO mutant but not parental strain on dye agar (S. aureus tarO mutant; [7]): conferred susceptibility

tunicamycin
toxicity for C. elegans (C. elegans): dose dependent toxicity

CCNc1ccc2ccccc2c1N=Nc1ccc(N=Nc2ccccc2)cc1 [Sudan Red 7B]
selective suppression of growth of tarO mutant but not parental strain on dye agar (S. aureus tarO mutant; [7]): conferred susceptibility

CCN(CC)c1ccc2c(-c3ccc(S(=O)(=O)[O-])cc3S(=O)(=O)[O-])c3ccc(=[N+](CC)CC)cc-3oc2c1.[Na+] [Acid Red]
selective suppression of growth of tarO mutant but not parental strain on dye agar (S. aureus tarO mutant; [7]): conferred susceptibility

O=S(=O)(O)c1cc(Nc2nc(Nc3ccccc3)nc(N(CCO)CCO)n2)ccc1/C=C/c1ccc(Nc2nc(Nc3ccccc3)nc(N(CCO)CCO)n2)cc1S(=O)(=O)O [Calcofluor White]
selective suppression of growth of tarO mutant but not parental strain on dye agar (S. aureus tarO mutant; BHI agar, dye 0.01% w/v, 37° C., 24 hours): conferred susceptibility

Mordant black
selective suppression of growth of tarO mutant but not parental strain on dye agar (S. aureus tarO mutant; [7]): conferred susceptibility
